{"source": "PubChem BioAssay AID463199", "about": "(Broad Institute, 2010)", "note": "Active and inactive are the calls of the source.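 Rule for the calls: active = AC50, the dose giving half-maximal effect, exceeds a fixed cutoff for a compound that rescues yeast growth under heat; inactive = the rest, inconclusive results apart.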"}
{"test_system": "S. cerevisiae Burl-1 ts mutant growth, BacTiter-Glo, 38.5C 24 h", "test": "growth induction of Burl-1 ts yeast mutant, dose response, counter-screen for SUMOylation pathway inhibitor project, whole organism, S. cerevisiae, luminescence (AID 463199)"}
{"smiles": "CCc1ccc2nc(-c3cccc(C)c3)nc(SCC(=O)NCC3CCCO3)c2c1", "note": "(centres undefined)", "AC50": "> 42 µM (inactive)"}
{"smiles": "O=C(NC(=S)Nc1ccccc1N1CCCC1)c1ccc([N+](=O)[O-])cc1", "AC50": "> 42 µM (inactive)"}
{"smiles": "CN=C(Nc1cccnc1)c1ccccc1", "AC50": "> 42 µM (inactive)"}
{"smiles": "CCOc1ccc(N(CC)S(=O)(=O)c2cccc3nsnc23)cc1", "AC50": "> 42 µM (inactive)"}
{"smiles": "CC(C)(C)Cc1nc(-c2ccccn2)no1", "AC50": "> 42 µM (inactive)"}
{"smiles": "O=C(O)CCC(=O)Nc1cccc(C(=O)Nc2ccc(Br)cc2)c1", "AC50": "> 42 µM (inactive)"}
{"smiles": "Cc1ccc(-c2cc(C(=O)O)c3ccccc3n2)s1", "AC50": "> 42 µM (inactive)"}
{"smiles": "O=C(Cc1ccc(Cl)cc1Cl)OCC(=O)c1ccc[nH]1", "AC50": "> 42 µM (inactive)"}
{"smiles": "CN(C)CCN(Cc1ccc(Cl)cc1)c1ccccn1", "AC50": "36.3 µM"}
{"smiles": "CC(=O)c1c(Nc2cccc(F)c2)oc(C)cc1=O", "AC50": "> 42 µM (inactive)"}
{"smiles": "Cc1nn(C)cc1CNC(=O)C1CCC(=O)N(Cc2cccc(C(F)(F)F)c2)C1", "note": "(centres undefined)", "AC50": "> 42 µM (inactive)"}
{"smiles": "Cc1ccc(C(=O)c2cc([N+](=O)[O-])ccc2N2CCCCC2)cc1C", "AC50": "> 42 µM (inactive)"}
{"smiles": "COc1ccc(NC(=O)C(c2ccccc2)N2CCN(c3ccccn3)CC2)cc1Cl", "note": "(centres undefined)", "AC50": "> 42 µM (inactive)"}
{"smiles": "Cc1ccc(NC(=O)N[C@H](C(=O)O)C(C)C)c(C)c1", "AC50": "> 42 µM (inactive)"}
{"smiles": "CC1(C)C2CC[C@]3(C)C(CC=C4[C@@H]5C[C@@](C)(CO)[C@@H](O)C[C@]56C[C@@H](OC6=O)[C@]43C)[C@@]2(C)CC[C@@H]1O", "note": "(some centres undefined)", "AC50": "> 42 µM (inactive)"}
{"smiles": "O=C(OCc1ccccc1)c1cccc(-c2nnn(Cc3ccccc3)n2)c1", "AC50": "> 42 µM (inactive)"}
{"smiles": "O=C(COC(=O)c1ccc([N+](=O)[O-])o1)Nc1ncc(Cl)cc1Cl", "AC50": "> 42 µM (inactive)"}
{"smiles": "CC(C)C[C@@H](CO)N1CCN(Cc2cccnc2)CCC1=O", "AC50": "> 42 µM (inactive)"}
{"smiles": "CS(=O)(=O)C1=NSC2=NC(=O)/C(=C\\c3ccc(OS(=O)(=O)c4ccccc4)cc3)C(=N)N21", "AC50": "> 42 µM (inactive)"}
{"smiles": "c1ccc(-c2csc(N3CCN(c4ccccn4)CC3)n2)cc1", "AC50": "> 42 µM (inactive)"}
{"smiles": "CCOC(=O)c1cc([N+](=O)[O-])c([N+](=O)[O-])cc1NC(C)=O", "AC50": "> 42 µM (inactive)"}
{"smiles": "C[C@H](NC(=O)OC(C)(C)C)C(=O)NCC1CCC(C(=O)N[C@@H](Cc2ccccc2)C(=O)O)CC1", "note": "(some centres undefined)", "AC50": "> 42 µM (inactive)"}
{"smiles": "O=C(Oc1ccc2c(c1)OCO2)c1cccs1", "AC50": "> 42 µM (inactive)"}
{"smiles": "COc1ccc2cc(C(=O)Nc3ccc(Cl)cc3)sc(=O)c2c1OC", "AC50": "> 42 µM (inactive)"}
{"smiles": "O=C(NC1CCCCC1)c1ccc2c(=O)n(CC3CCCO3)c(=O)[nH]c2c1", "note": "(centres undefined)", "AC50": "> 42 µM (inactive)"}
{"smiles": "O=C(NCc1ccccc1Cl)C(=O)NCC1CCCN1S(=O)(=O)c1cccs1", "note": "(centres undefined)", "AC50": "> 42 µM (inactive)"}
{"smiles": "Cc1ccc(S(=O)(=O)N2CCCC2C(=O)NCCc2ccccc2)cc1", "note": "(centres undefined)", "AC50": "> 42 µM (inactive)"}
{"smiles": "CCCCN(C)C(=O)c1cc2c(Cl)nc3ccccc3c2s1", "AC50": "> 42 µM (inactive)"}
{"smiles": "Nc1nnnn1CC(=O)N/N=C/c1cccs1", "AC50": "> 42 µM (inactive)"}
{"smiles": "CCN(CC)c1ccc(/C=N/NC(=O)OC(C)(C)C)cc1", "AC50": "> 42 µM (inactive)"}
{"smiles": "O=C(CSc1nc2ccc(Cl)cc2[nH]1)NCc1ccco1", "AC50": "> 42 µM (inactive)"}
{"smiles": "O=C(CSc1cccc[n+]1[O-])N1CCc2ccccc21", "AC50": "> 42 µM (inactive)"}
{"smiles": "CCC1C(c2ccccc2)NC(c2ccccc2)CC1(O)c1ccc(F)cc1", "note": "(centres undefined)", "AC50": "> 42 µM (inactive)"}
{"smiles": "COCCCNS(=O)(=O)c1ccc(Oc2ncc(C(F)(F)F)cc2Cl)cc1", "AC50": "> 42 µM (inactive)"}
{"smiles": "Oc1cccc(/C=N/N2CCN(c3ccccn3)CC2)c1", "AC50": "> 21 µM (inactive)"}
{"smiles": "COc1ccc(NS(=O)(=O)c2ccc(OCC(=O)N3CCOCC3)cc2)cc1Cl", "AC50": "> 42 µM (inactive)"}
{"smiles": "COc1ccc(NC(=O)c2ccc(COc3ccccc3OC)o2)cc1OC", "AC50": "> 42 µM (inactive)"}
{"smiles": "Cc1n[nH]c(=O)nc1NCc1ccc(Cl)cc1", "AC50": "> 42 µM (inactive)"}
{"smiles": "C/C(CC(=O)NC1CCCCC1)=N\\NC(=O)Cc1ccc(-c2ccccc2)cc1", "AC50": "> 42 µM (inactive)"}
